Reference: US20220273926A1, “DRUG DELIVERY USING MICRONEEDLE ARRAYS” (BOARD OF REGENTS OF THE UNIVERSITY OF NEBRASKA, priority 2019, published 2022)
“Also recorded” adds a separate entry of the source. Like-named read-outs stand apart in the source and are kept apart here.

Key:
[1] = Cefazolin release from thermo-responsive alginate/PNIPAM patch with heater; format: physicochemical; details: PNIPAM carriers in alginate patch, heat applied; over 1 h
Description: To minimize the thermal contact resistance between the microheater and the hydrogel layer, the hydrogel was directly cast on top of the heater. Chronic wounds are known for their high rate of exudate generation and thus exudate management is important in the proper function of the sensors and drug delivery modules. The utilized alginate-based hydrogels are known for high water uptake and swelling ratios and have been used in engineering wet wound dressings. In addition, since the sensors are in direct contact with the skin, the swelling of the hydrogels is not expected to affect the readout. To visualize the drug release, rhodamine B was loaded into PNIPAM particles and the system was heated while being monitored under a microscope. […] After applying heat to the alginate patch, the cefazolin release profile was measured over time. […] To assess the possibility of releasing drugs in a dynamic fashion, heat was applied periodically (30 min on, 30 min off) and the drug release amount was determined. […]
Drug Release with Integrated Heaters: Alginate hydrogel with embedded drug microcarriers was attached on the surface of the microheater while 200 μL PBS was added into the plate and electrical voltage was applied to generate heat. The drug released into the solution was evaluated using plate reader.

[2] = Drug adsorption to the bandage: solution perfused through the MNAs; format: physicochemical; details: perfusion through bandage and MNAs; BSA 54 ng/mL, cefazolin 16 μg/mL
Description: Once the system was characterized, the efficiency of the bandage in drug delivery was evaluated. Initially, the potential drug adsorption to the engineered bandage was to be tested. […] The solution was then collected at different time points after perfusion through the MNAs and the concentration of the drugs determined using a total protein assay (for BSA) and UV-Vis spectrophotometry (for cefazolin).
Drug Delivery Characterization: The potential protein and drug adsorption by the bandage, tubing, and MNAs were investigated by perfusing a solution with known concentrations of cefazolin salt and BSA. 150 μL of the delivered solution was collected at different time points and the concentrations of cefazolin and BSA were determined by measuring the solution absorbance for cefazolin and BCA protein assay kit for BSA.

keratinocytes = assay: Scratch test assay on keratinocytes contaminated with S. aureus; format: cell-based, human; details: keratinocyte monolayer contaminated with S. aureus
Description: A standard scratch test assay was used to evaluate the cell migration in presence of bacteria. […] To perform this experiment, the scratch was created over a monolayer of the confluent keratinocytes, which were contaminated with S. aureus in advance. Three groups were used for this set of experiments: (1) cefazolin powder as a positive control, (2) alginate without antibiotic loading as a negative control, and (3) alginate containing cefazolin.
Keratinocytes (1×10^5) were seeded and cultured in a six-well plate and kept overnight to make a confluent monolayer overnight. The 1 mm wide gap scratch was then created onto the monolayer with a 200 μL pipette tip, and floating cells were removed by twice washing with PBS. After the line scratches, 2 mL of DMEM was added for each group. To detect the efficacy of treatments on cell migration, samples were continually imaged for 0, 8, 24, and 48 h. Images of the monolayer were taken by a microscope and cell migration activity was evaluated as the migration distance from the edges of the scratch toward the center of it using Image J software (NIH, Bethesda, Md., USA). For each well, ten images were taken and selected randomly. Experiments were done independently in triplicate.

[3] = after 180 min, target 20 μg/mL
Description: The intradermal drug delivery kinetics were further evaluated by developing an in vitro model mimicking the structure of wounds in which eschar and granulation tissue separates the endothelial cells from the outside environment. This model, illustrated schematically in FIG. 2a, consisted of a cell culture insert with a porous membrane covered by agarose (3% w/v) with ˜2 mm thickness, and the bottom well represented the environment of endothelial cells.
Assessment of release kinetics: To mimic the chronic wound tissue, 12-well cell culture inserts were filled with 150 μL of 3% (w/v) agarose. […] Inserts were divided into 3 groups (4 replicate/group) with respect to the method of delivery, including topical, MNA, and LJI. To measure the concentration of the delivered solution, at each time point 100 μL was removed and then replaced with the same volume of fresh PBS. After collecting all samples, the concentration was measured by a plate reader (Cytation 5, BioTek) followed by data analysis to extract the related release graphs. In the case of BSA, measurement process was followed based on manufacturer's protocol.

In the case of `Cc1nnc(SCC2=C(C(=O)O)N3C(=O)[C@@H](NC(=O)Cn4cnnn4)[C@H]3SC2)s1` [cefazolin], the drug released [1] is reported as “about 80%”, the “temporal changes in the drug concentration within the perfused solution” value [2] is reported as “not statistically significant; also recorded: insignificant change in concentration” and the “cell migration in scratch assay” value (keratinocytes) is reported as “rapid migration toward the opening area was observed”. For the same compound, the “delivered into the bottom chamber (overall efficiency of delivery)” value (shortened to “delivered into the bottom chamber”) ([3]; LJI) was “more than 90%”, the “delivered into the bottom chamber” value ([3]; MNAs) was roughly 65% and the “delivered into the bottom chamber” value ([3]; topical (TOP)) was roughly 25%.
